Assay results as given in article PMC9001978, “Determining the Effects of Differential Expression of GRKs and β-arrestins on CLR-RAMP Agonist Bias” (Frontiers in Physiology, 2022).
Values belong to the molecule of their own block, whether it stands above or below them.

Experiments:
HEK293T cells = test: cAMP accumulation in HEK293T cells with endogenous CLR and RAMPs; type: cell-based; conditions: far lower potency than expected of CLR with any RAMP
CLR-RAMP1 [1] = molecular target: T1, CLR-RAMP1 (Homo sapiens, UniProt O60894+Q16602); test: cAMP accumulation at CLR-RAMP1
CLR-RAMP1 [2] = molecular target: T1, CLR-RAMP1; test: β-arrestin2 recruitment to CLR-RAMP1 (BRET); conditions: HEK293T, n = 3
CLR-RAMP1 [3] = molecular target: T1, CLR-RAMP1; test: Internalisation of CLR-RAMP1 (BRET CLR-Nluc / RIT-Venus); conditions: HEK293T, CLR-Nluc + FLAG-RAMP1, RIT-Venus BRET; mean ± SEM, n = 3-4
CLR-RAMP1 [4] = molecular target: T1, CLR-RAMP1; test: β-arrestin1 recruitment to CLR-RAMP1 (BRET); conditions: HEK293T, n = 3
CLR-RAMP3 [5] = molecular target: T2, CLR-RAMP3 (Homo sapiens, UniProt O60896+Q16602); test: β-arrestin1 recruitment to CLR-RAMP3 (BRET); conditions: HEK293T, n = 3
CLR-RAMP3 [6] = molecular target: T2, CLR-RAMP3; test: Internalisation of CLR-RAMP3 (BRET CLR-Nluc / RIT-Venus); conditions: HEK293T, CLR-Nluc + FLAG-RAMP3, RIT-Venus BRET; mean ± SEM, n = 4-5
CLR-RAMP3 [7] = molecular target: T2, CLR-RAMP3; test: β-arrestin2 recruitment to CLR-RAMP3 (BRET); conditions: HEK293T, n = 3
[8] = molecular target: T3, CLR-Nluc in complex with FLAG-RAMP1 (CGRP receptor) (UniProt Q16602 23-461; O60894 27-148)
T3 construct: calcitonin-like receptor (CLR), direct C-terminal in-frame fusion to NanoLuc, in pcDNA3.1(-); receptor activity modifying protein 1 (RAMP1), pcDNA3.1(+)FLAG-RAMP, described in Weston et al., 2016 and Harris et al., 2021; Harris et al., 2021; also called CLR-RAMP1; calcitonin-like receptor with receptor activity modifying protein 1; source: HEK293T, transfected, in living cells; not shown: …

[9] = molecular target: T4, CLR-Nluc in complex with FLAG-RAMP2 (adrenomedullin 1 receptor) (UniProt Q16602 23-461; O60895 43-175); test: FRET or BRET; living HEK293T cells transfected with CLR-Nluc (donor), FLAG-RAMP1/2/3 and β-arrestin1/2-YFP (acceptor); 5 μM coelenterazine-h; stimulated with AM, 1 μM to 10 pM; BRET ratio 460/530 nm read for at least 20 min; conditions: partners not purified
T4 construct: calcitonin-like receptor (CLR), direct C-terminal in-frame fusion to NanoLuc, in pcDNA3.1(-); receptor activity modifying protein 2 (RAMP2), pcDNA3.1(+)FLAG-RAMP, described in Weston et al., 2016 and Harris et al., 2021; Harris et al., 2021; also called CLR-RAMP2; AM1R; source: HEK293T, transfected, in living cells; not shown: NanoLuc, C-terminal, kept; FLAG, N-terminal, kept
T4 sequence (Q16602 23-461, chain 1 of 2): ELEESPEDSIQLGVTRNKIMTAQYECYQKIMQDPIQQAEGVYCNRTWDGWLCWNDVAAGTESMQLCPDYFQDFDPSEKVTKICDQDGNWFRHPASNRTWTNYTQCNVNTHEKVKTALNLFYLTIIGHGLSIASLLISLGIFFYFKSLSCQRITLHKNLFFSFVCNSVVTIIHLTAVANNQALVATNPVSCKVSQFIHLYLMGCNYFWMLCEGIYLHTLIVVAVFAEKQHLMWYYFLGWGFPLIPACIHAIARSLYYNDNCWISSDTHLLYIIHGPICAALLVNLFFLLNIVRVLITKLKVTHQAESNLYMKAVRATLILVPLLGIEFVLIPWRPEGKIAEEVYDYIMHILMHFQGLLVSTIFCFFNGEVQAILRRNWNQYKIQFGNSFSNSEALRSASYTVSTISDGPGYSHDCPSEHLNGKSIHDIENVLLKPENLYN
T4 sequence (O60895 43-175, chain 2 of 2): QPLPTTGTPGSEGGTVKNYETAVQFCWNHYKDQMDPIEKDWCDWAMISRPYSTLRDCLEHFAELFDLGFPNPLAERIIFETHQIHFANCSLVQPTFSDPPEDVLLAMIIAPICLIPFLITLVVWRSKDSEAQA

T2 sequence (Q16602 23-461): as the sequence (Q16602 23-461, chain 1 of 2) above
T2 sequence (O60896 24-148): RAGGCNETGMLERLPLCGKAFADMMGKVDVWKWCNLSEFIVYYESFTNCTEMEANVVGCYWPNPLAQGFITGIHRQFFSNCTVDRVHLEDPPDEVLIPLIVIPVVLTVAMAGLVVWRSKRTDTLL
T3 sequence (Q16602 23-461, chain 1 of 2): as the sequence (Q16602 23-461, chain 1 of 2) above
T3 sequence (O60894 27-148, chain 2 of 2): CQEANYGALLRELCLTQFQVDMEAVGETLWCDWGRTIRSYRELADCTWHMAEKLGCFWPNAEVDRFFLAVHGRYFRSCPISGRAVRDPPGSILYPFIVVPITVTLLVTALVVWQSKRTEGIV
T1 sequence (Q16602 23-461): as the sequence (Q16602 23-461, chain 1 of 2) above
T1 sequence (O60894 27-148): as the sequence (O60894 27-148, chain 2 of 2) above

Emax, cAMP accumulation (CLR-RAMP1 [1]; HEK293T, CLR-Nluc + FLAG-RAMP1, 30 min stimulation, LANCE ultra, mean ± SEM, n = 3-4): 84.7 ± 3.0 percentage 100 μM forskolin
Emax, cAMP accumulation (CLR-RAMP1 [1]; HEK293T, GRK2 overexpressed, 30 min, n = 3): 61.6 ± 3.7 percentage 100μM forskolin
Emax, cAMP accumulation (CLR-RAMP1 [1]; HEK293T, GRK3 overexpressed, 30 min, n = 3): 46.5 ± 2.9 percentage 100μM forskolin
Emax, cAMP accumulation (CLR-RAMP1 [1]; HEK293T, GRK4 overexpressed, 30 min, n = 3): 51.3 ± 5.3 percentage 100μM forskolin
Emax, cAMP accumulation (CLR-RAMP1 [1]; HEK293T, GRK5 overexpressed, 30 min, n = 3): 40.0 ± 4.8 percentage 100μM forskolin
Emax, cAMP accumulation (CLR-RAMP1 [1]; HEK293T, GRK6 overexpressed, 30 min, n = 3): 58.9 ± 7.4 percentage 100μM forskolin
Emax, cAMP accumulation (CLR-RAMP1 [1]; HEK293T, β-arrestin1 overexpressed, 500 μM IBMX, mean ± SEM, n = 4): 98.6 ± 2.4 percentage 100 μM forskolin
Emax, cAMP accumulation (CLR-RAMP1 [1]; HEK293T, β-arrestin2 overexpressed, 500 μM IBMX, mean ± SEM, n = 3-4): 99.3 ± 2.1 percentage 100 μM forskolin
Emax, cAMP accumulation (CLR-RAMP1 [1]; HEK293 cells, 500 μM IBMX, mean ± SEM, n = 4): 81.1 ± 7.9 percentage 100 μM forskolin
Emax, cAMP accumulation (CLR-RAMP1 [1]; HEK293Δβ-arr1/2 cells, 500 μM IBMX, mean ± SEM, n = 4): 89.0 ± 5.4 percentage 100 μM forskolin
Emax, cAMP accumulation (CLR-RAMP1 [1]; pre-treated with 100 μM barbadin, 30 min, mean ± SEM, n = 5-6): ~91.4 ± 5.5 percentage 100μM forskolin
Emax, cAMP accumulation (CLR-RAMP1 [1]; pre-treated with 1% DMSO, 30 min, mean ± SEM, n = 5-6): 88.0 ± 5.2 percentage 100μM forskolin
Emax, β-arrestin2 recruitment (CLR-RAMP1 [2]; CLR-Nluc + FLAG-RAMP1 + β-arrestin2-YFP, BRET, mean ± SEM): ~98 ± 10 BRET units (x10^-3)
Emax, β-arrestin2 recruitment (CLR-RAMP1 [2]; GRK2 overexpressed): ~54 ± 4 BRET units (x10^-3)
Emax, β-arrestin2 recruitment (CLR-RAMP1 [2]; GRK3 overexpressed): ~47 ± 3 BRET units (x10^-3)
Emax, β-arrestin2 recruitment (CLR-RAMP1 [2]; GRK4 overexpressed): ~48 ± 3 BRET units (x10^-3)
Emax, β-arrestin2 recruitment (CLR-RAMP1 [2]; GRK5 overexpressed): 11 ± 1 BRET units (x10^-3)
Emax, β-arrestin2 recruitment (CLR-RAMP1 [2]; GRK series: Vector): ~98 ± 10 BRET units (x10^-3)
Emax, internalisation (CLR-RAMP1 [3]): ~-44 ± 42 BRET units (x10^-3)
Emax, β-arrestin1 recruitment (CLR-RAMP1 [4]; CLR-Nluc + FLAG-RAMP1 + β-arrestin1-YFP, BRET, mean ± SEM): ~63 ± 14 BRET units (x10^-3)
Emax, β-arrestin1 recruitment (CLR-RAMP1 [4]; GRK2 overexpressed): ~57 ± 7 BRET units (x10^-3)
Emax, β-arrestin1 recruitment (CLR-RAMP1 [4]; GRK3 overexpressed): ~43 ± 5 BRET units (x10^-3)
Emax, β-arrestin1 recruitment (CLR-RAMP1 [4]; GRK4 overexpressed): ~39 ± 7 BRET units (x10^-3)
Emax, β-arrestin1 recruitment (CLR-RAMP1 [4]; GRK6 overexpressed): ~11 ± 2 BRET units (x10^-3)
Emax, β-arrestin1 recruitment (CLR-RAMP1 [4]; GRK series: Vector): ~63 ± 14 BRET units (x10^-3)
Emax, β-arrestin1 recruitment (CLR-RAMP3 [5]; CLR-Nluc + FLAG-RAMP3 + β-arrestin1-YFP, BRET, mean ± SEM): 8 ± 1 BRET units (x10^-3)
Emax, β-arrestin1 recruitment (CLR-RAMP3 [5]; GRK2 overexpressed): 6 ± 1 BRET units (x10^-3)
Emax, β-arrestin1 recruitment (CLR-RAMP3 [5]; GRK3 overexpressed): 5 ± 1 BRET units (x10^-3)
Emax, β-arrestin1 recruitment (CLR-RAMP3 [5]; GRK4 overexpressed): 4 ± 1 BRET units (x10^-3)
Emax, β-arrestin1 recruitment (CLR-RAMP3 [5]; GRK series: Vector): 7 ± 1 BRET units (x10^-3)
Emax, internalisation (CLR-RAMP3 [6]): -5 ± 1 BRET units (x10^-3)
Emax, β-arrestin2 recruitment (CLR-RAMP3 [7]; CLR-Nluc + FLAG-RAMP3 + β-arrestin2-YFP, BRET, mean ± SEM): 11 ± 1 BRET units (x10^-3)
Emax, β-arrestin2 recruitment (CLR-RAMP3 [7]; GRK2 overexpressed): 8 ± 1 BRET units (x10^-3)
Emax, β-arrestin2 recruitment (CLR-RAMP3 [7]; GRK3 overexpressed): 11 ± 2 BRET units (x10^-3)
Emax, β-arrestin2 recruitment (CLR-RAMP3 [7]; GRK4 overexpressed): 8 ± 1 BRET units (x10^-3)
Emax, β-arrestin2 recruitment (CLR-RAMP3 [7]; GRK series: Vector): 11 ± 1 BRET units (x10^-3)
Molecule: CC[C@H](C)[C@H](NC(=O)[C@H](CCC(N)=O)NC(=O)[C@H](Cc1c[nH]cn1)NC(=O)[C@H](C)NC(=O)[C@H](CC(C)C)NC(=O)[C@H](CCCCN)NC(=O)[C@H](CCC(N)=O)NC(=O)[C@@H](NC(=O)[C@@H](NC(=O)[C@@H]1CSSC[C@H](NC(=O)CNC(=O)[C@H](Cc2ccccc2)NC(=O)[C@H](CO)NC(=O)[C@H](CCCNC(=N)N)NC(=O)[C@H](CC(C)C)NC(=O)CNC(=O)[C@H](CCC(N)=O)NC(=O)[C@H](Cc2ccccc2)NC(=O)[C@H](CC(N)=O)NC(=O)[C@H](CC(N)=O)NC(=O)[C@H](CCSC)NC(=O)[C@H](CO)NC(=O)[C@H](CCC(N)=O)NC(=O)[C@H](CCCNC(=N)N)NC(=O)[C@@H](N)Cc2ccc(O)cc2)C(=O)N[C@@H](CCCNC(=N)N)C(=O)N[C@@H](Cc2ccccc2)C(=O)NCC(=O)N[C@@H]([C@@H](C)O)C(=O)N1)[C@@H](C)O)C(C)C)C(=O)N[C@@H](Cc1ccc(O)cc1)C(=O)N[C@@H](CCC(N)=O)C(=O)N[C@@H](Cc1ccccc1)C(=O)N[C@H](C(=O)N[C@@H](CC(=O)O)C(=O)N[C@@H](CCCCN)C(=O)N[C@@H](CC(=O)O)C(=O)N[C@@H](CCCCN)C(=O)N[C@@H](CC(=O)O)C(=O)N[C@@H](CC(N)=O)C(=O)N[C@H](C(=O)N[C@@H](C)C(=O)N1CCC[C@H]1C(=O)N[C@@H](CCCNC(=N)N)C(=O)N[C@@H](CO)C(=O)N[C@@H](CCCCN)C(=O)N[C@H](C(=O)N[C@@H](CO)C(=O)N1CCC[C@H]1C(=O)N[C@@H](CCC(N)=O)C(=O)NCC(=O)N[C@@H](Cc1ccc(O)cc1)C(N)=O)[C@@H](C)CC)C(C)C)[C@@H](C)O [AM, adrenomedullin]
cAMP response via endogenous low levels of CLR and RAMPs (HEK293T cells): small response

cAMP accumulation, Emax, cells pretreated with DMSO (vehicle) (% of the response to 100 μM forskolin) [8]: 79.8
cAMP accumulation, Emax, cells pretreated with barbadin (% of the response to 100 μM forskolin) [8]: 47.2
cAMP accumulation, pEC50, cells pretreated with DMSO (vehicle) [8]: 6.34
cAMP accumulation, pEC50, cells pretreated with barbadin [8]: 4.93
Molecule: adrenomedullin 2 (from UniProt Q7Z4H4 101-148) (peptide)

pEC50 of AM for recruitment (BRET) [9]: 7.57 ± 0.17
B1: β-arrestin1-YFP (natural protein, UniProt P49407 1-418, looked up)
chain: MGDKGTRVFKKASPNGKLTVYLGKRDFVDHIDLVDPVDGVVLVDPEYLKERRVYVTLTCAFRYGREDLDVLGLTFRKDLFVANVQSFPPAPEDKKPLTRLQERLIKKLGEHAYPFTFEIPPNLPCSVTLQPGPEDTGKACGVDYEVKAFCAENLEEKIHKRNSVRLVIRKVQYAPERPGPQPTAETTRQFLMSDKPLHLEASLDKEIYYHGEPISVNVHVTNNTNKTVKKIKISVRQYADICLFNTAQYKCPVAMEEADDTVAPSSTFCKVYTLTPFLANNREKRGLALDGKLKHEDTNLASSTLLREGANREILGIIVSYKVKVKLVVSRGGLLGDLASSDVAVELPFTLMHPKPKEEPPHREVPENETPVDTNLIELDTNDDDIVFEDFARQRLKGMKDDKEEEEDGTGSPQLNNR
notes: β-arrestin1 with an in-frame C-terminal YFP (Mackie et al., 2019); source: HEK293T, transfected, in living cells; not shown: YFP, C-terminal, kept
